US5508288A, “Indole derivatives as 5HT1C antagonists” (SmithKline Beecham, p.l.c., priority 1992, dated 1996)

Experiments:
5-HT1C receptors [1] = biological target: T1, 5-HT1C receptors (Rattus norvegicus, UniProt P08909); experiment: Reversal of mCPP-induced hypolocomotion; assay type: in vivo; details: po, p.o. 1 h pretest, mCPP 7 mg/kg i.p., male Sprague Dawley rats, read-out: ID50 (the source's name)
T1 construct: tissue Charles River; host or cells: whole animal, male Sprague Dawley rats (central receptors, in vivo)
T1 sequence (P08909 33-460): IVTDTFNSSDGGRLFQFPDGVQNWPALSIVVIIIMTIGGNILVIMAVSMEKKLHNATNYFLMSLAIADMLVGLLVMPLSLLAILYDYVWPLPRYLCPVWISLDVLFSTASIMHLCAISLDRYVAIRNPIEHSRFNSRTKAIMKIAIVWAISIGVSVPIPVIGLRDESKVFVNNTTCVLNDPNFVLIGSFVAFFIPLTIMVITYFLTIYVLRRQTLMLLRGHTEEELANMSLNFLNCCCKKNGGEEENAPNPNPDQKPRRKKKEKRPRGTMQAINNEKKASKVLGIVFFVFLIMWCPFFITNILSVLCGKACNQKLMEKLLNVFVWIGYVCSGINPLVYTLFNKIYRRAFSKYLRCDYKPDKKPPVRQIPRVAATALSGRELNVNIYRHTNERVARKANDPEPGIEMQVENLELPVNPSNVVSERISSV
Source text: This effect was blocked by the non specific 5-HT1C /5-HT2 receptor antagonists mianserin, cyproheptadine and metergoline and perhaps by mesulergine. It was not blocked by the 5-HT2 receptor antagonists ketanserin and ritanserin at relevant doses (Kennett and Curzon 1991) nor by antagonists of 5-HT1A, 5-HT1B, 5-HT3, α2 adrenoceptors or dompamine D2 receptors. The effect of mCPP is therefore considered to be mediated by 5-HT1C receptors (Kennett and Curzon 1988) as confirmed by subsequent studies (Lucki et al., 1989). Since mCPP causes hypolocomotion when infused into the cerebral ventricles this effect is probably centrally mediated (Kennett and Curzon 1988).
mCPP-induced hypolocomotion was measured in automated locomotion cages of dimensions 56 cm long×161/2× cm wide×25 cm high and made of black perspex. Two photobeams traversed the width of the cages at either end at ground level. Sequential breaking of these beams allowed the measurement of cage transits.
Male Sprague Dawley rats (200-250 g) (Charles River) were housed in groups of six. They were given drugs orally 1 h pretest and 40 mins later mCPP (7 mg/kg i.p.). After a further 20 min they were placed in individual automated cages in groups of four under red light in an adjacent room. After 10 min the test was terminated. […]

5-HT1C -like Receptors = biological target: T2, 5-HT1C -like Receptors (Rattus norvegicus, UniProt P30994); experiment: Rat fundic strip, antagonism of 5-HT; details: agonist 5-HT, read-out: pA2 (converted)
T2 construct: tissue Charles River; host or cells: stomach fundus strips of male CD rats
T2 sequence (P30994 whole entry): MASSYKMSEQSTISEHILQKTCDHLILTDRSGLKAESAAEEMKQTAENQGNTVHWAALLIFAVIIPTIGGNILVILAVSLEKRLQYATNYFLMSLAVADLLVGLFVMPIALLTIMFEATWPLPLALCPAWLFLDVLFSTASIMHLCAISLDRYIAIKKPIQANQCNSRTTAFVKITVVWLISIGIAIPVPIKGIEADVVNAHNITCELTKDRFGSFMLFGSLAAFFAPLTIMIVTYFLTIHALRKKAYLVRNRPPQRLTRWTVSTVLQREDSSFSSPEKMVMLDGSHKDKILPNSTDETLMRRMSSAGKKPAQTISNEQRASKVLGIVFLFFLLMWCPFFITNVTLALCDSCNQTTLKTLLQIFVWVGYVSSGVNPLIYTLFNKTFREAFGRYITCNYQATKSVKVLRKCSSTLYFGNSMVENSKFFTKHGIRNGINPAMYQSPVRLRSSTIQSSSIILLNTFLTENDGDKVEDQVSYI
Source text: The 5-HT receptor in the rat fundic strip (RFS) has been characterised as `5-HT1C -like` as its pharmacology is similar, but not identical, to that of rat 5-HT1C receptor dones.
Whole stomachs were obtained from male CD Rats (Charles River, 250-350 g). Strips of fundus (2 cm×0.5 cm) were cut from the greater curvature and the mucesae carefully removed. Tissues were then further dissected into smaller strips (2 mm×20 mm) which were mounted in organ baths containing oxygensted Tyrodes solution at 37° C. containing indomethacin (3 μM). Preparations were maintained under a resting tension of 0.5 g and exposed to the irreversible MAO inhibitor pargyline (100 μM for 30 minutes followed by washout). Over a 1 h equilibration period, rat fundic strips were challenged with 1×10^-8 M 5-HT at 15 minute intervals until constant responses were obtained. Fifteen minutes later, a complete cumulative concentration-effect curve to the standard agonist 5-HT (1×10^-10 upwards) was constructed to determine the individual sensitivity of each preparation. A further concentration-effect curve to either 5-HT, or other agonists was constructed no sooner than 1 h after completion of the previous curve. When necessary tissues were equilibrated with the antagonists over this one hour period. Antagonists affinities are expressed as pA2 estimates.

[2] = test system: rat stomach fundus seretonin receptor; details: J. Med. Chem. 1986 29 2415-2418; cited from earlier work
5-HT1C receptors [3] = biological target: T1, 5-HT1C receptors; details: rats; literature (Kennett and Curzon); cited from earlier work

| Structure (SMILES) | block of mCPP-induced hypolocomotion (5-HT1C receptors [3]) | also measured |
| --- | --- | --- |
| Cn1ccc2cc(NC(=O)Nc3cccnn3)ccc21 [Example 2, N-(1-Methyl-5-indolyl)-N'-(3-pyridazinyl) urea] | – | ED50 (5-HT1C receptors [1]): 47 mg/kg |
| Cn1ccc2cc(NC(=O)Nc3cncnc3)ccc21 [Example 3, N-(1-Methyl-5-indolyl)-N'-(5-pyrimidinyl) urea] | – | ED50 (5-HT1C receptors [1]): 43.7 mg/kg |
| Cc1cc(NC(=O)Nc2ccc3c(ccn3C)c2)sn1 [Example 5, N-(1-Methyl-5-indolyl)-N'-(3-methyl-5-isothiazolyl) urea] | – | Kb (5-HT1C -like Receptors): 12.6 nM |
| CCc1c(C)n(C)c2ccc(NC(=O)Nc3cccc(C(F)(F)F)c3)cc12 [N-(1,2-dimethyl-3-ethyl-1H-indol-5-yl)-N'-(3-trifluoromethylphenyl)urea] | – | selectivity for the rat stomach fundus serotonin receptor [2]: shows selectivity |
| CN1CCC(=C2c3ccccc3C=Cc3ccccc32)CC1 [cyproheptadine] | blocked | – |
| O=C(c1ccc(F)cc1)C1CCN(CCn2c(=O)[nH]c3ccccc3c2=O)CC1 [ketanserin] | not blocked | – |
| CN1C[C@@H](NS(=O)(=O)N(C)C)C[C@@H]2c3cccc4c3c(cn4C)C[C@H]21 [mesulergine] | perhaps | – |
| CN1C[C@H](CNC(=O)OCc2ccccc2)C[C@@H]2c3cccc4c3c(cn4C)C[C@H]21 [metergoline] | blocked | – |
| CN1CCN2c3ccccc3Cc3ccccc3C2C1 (stereo not shown) [mianserin] | blocked | – |
| Cc1nc2sccn2c(=O)c1CCN1CCC(=C(c2ccc(F)cc2)c2ccc(F)cc2)CC1 [ritanserin] | not blocked | – |
